Read-outs that look alike come from different tables or passages of the source.
Legend:
IL-17F = experiment: TH17 cytokine inhibition measured by ELISA (IL-17F); assay type: cell-based; conditions: 120 h; human TH17 cells, 5 days differentiation, ELISA of supernatants, 0.1% DMSO
Description: (§1) Peripheral blood mononuclear cells (PBMCs) were sourced from freshly prepared leukocyte enriched plasma (buffy coat) from healthy volunteers from which PBMCs were isolated by density gradient centrifugation using Ficoll-Paque™ PLUS (GE Healthcare). Naïve CD4+ T cells were isolated using the Naïve CD4+ T cell Isolation Kit II (Miltenyi Biotec) as per manufacturer's instructions. CD4+ T cells were plated at 5×10^4 cells/well in 96 well plates pre-coated with immobilized human (h)-αCD3 antibody (eBioscience) then differentiated to TH17 cells using h-αCD28, h-αIFN-γ, h-αIL-4, h-IL-6, h-IL-23, h-IL-1β, h-TGF-β1 (eBioscience) and maintained in a cell culture incubator at 37° C. with 5% CO2 in TexMACS Medium (Miltenyi Biotec) supplemented with 1% Penicillin/Streptomycin (Lonza) over 5 days.
(§2) Human CD4+ T cells were differentiated to TH17 cells as described in the presence or absence of various concentrations of compounds in a final concentration of 0.1% DMSO in TexMACS medium. Supernatants were collected and stored at −20° C. until they were to be assayed for IL-17A, IL-17F, IL-17AF, IL-21 and/or IL-22 levels as determined by Ready-Set-Go ELISA kits (eBioscience) as per manufacturer's instructions. Endpoint absorbance was read at 450 nm and 570 nm according to manufacturer's instructions (eBioscience) using a microplate reader (Perkin Elmer). The percentage of cytokine inhibition was calculated with reference to DMSO treated cells and the IC50s were determined by GraphPad Prism software and presented in the table below.

IL-22 [1] = experiment: TH17 cytokine inhibition measured by ELISA (IL-22); assay type: cell-based; conditions: 120 h; human TH17 cells, 5 days differentiation, ELISA of supernatants, 0.1% DMSO
Description: as §1, §2

[2] = TH17 cell viability (Prestoblue); assay type: cell-based; conditions: human; 1 μM compound, after 5 days, percentage of DMSO treated cells
Description: as §1
Cells were assayed for viability in the presence or absence of 1 μM compound using Prestoblue® Cell Viability Reagent (Life Technologies) as per manufacturer's instructions after 30 minutes incubation of TH17 cells with reagent. Absorbance was measured at 570 nm and 600 nm using a microplate reader (Perkin Elmer) and data were analyzed as per manufacturer's instructions. Cell viability was determined after 5 days and expressed as a percentage of DMSO treated cells.

TH17 cells = experiment: TH17 cellular proliferation (Prestoblue); assay type: cell-based; conditions: Homo sapiens, 120 h; 3 μM compound, after 5 day TH17 differentiation, relative to DMSO treated TH17 cells; read-out: % change in TH17 cell number
Description: as §1
Cellular proliferation was assessed in the presence or absence of 3 μM compound using Prestoblue® Cell Viability Reagent (Life Technologies) as per manufacturer's instructions using absorbance as the output measured by a microplate reader (Perkin Elmer) after 30 minutes of incubation. A standard curve developed by plotting varying cell numbers versus absorbance was used to assess differences in cellular proliferation between compound treated or untreated cells after the 5 day TH17 differentiation period.

IL-17A = experiment: Real-Time qRT-PCR gene expression in TH17 cells (IL-17A); assay type: cell-based, human; design: key: A: No change in gene expression observed relative to DMSO treated Th17 cells; B: Decreased gene expression observed relative to DMSO treated Th17 cells; C: Increased gene expression observed relative to DMSO treated Th17 cells; conditions: normalized to six reference genes
Description: as §1
(§3) RNA was isolated from TH17 cells and cDNA was synthesized using the Verso cDNA kit (Thermo Scientific) as per manufacturer's instructions. IL-17A, IL-17F, IL-21, IL-22, G-CSF, IL-23R and FOXP3 gene expression were determined for compound treated and untreated TH17 cell samples using Solaris qPCR Gene expression assays (Thermo Scientific) with an iCycler iQ Real-Time PCR Detection System (Bio-Rad). Individual gene expression was normalized to a panel of six reference genes (ACTB, TBP, HPRT1, PGK1, TFRC and PPIA) (Thermo Scientific) and analyzed by REST 2009 (Qiagen) in accordance to MIQE guidelines (Bustin et al. (2009) Clin. Chem, 55:611-622). The effects of compounds on TH17 cytokine gene expression are presented as fold change in mRNA levels of compound treated TH17 cells relative to DMSO treated cells in the table below.

IL-22 [3] = experiment: Real-Time qRT-PCR gene expression in TH17 cells (IL-22); assay type: cell-based, human; design: key: A: No change in gene expression observed relative to DMSO treated Th17 cells; B: Decreased gene expression observed relative to DMSO treated Th17 cells; C: Increased gene expression observed relative to DMSO treated Th17 cells; conditions: normalized to six reference genes
Description: as §1, §3

IL-23R = experiment: Real-Time qRT-PCR gene expression in TH17 cells (IL-23R); assay type: cell-based, human; design: key: A: No change in gene expression observed relative to DMSO treated Th17 cells; B: Decreased gene expression observed relative to DMSO treated Th17 cells; C: Increased gene expression observed relative to DMSO treated Th17 cells; conditions: normalized to six reference genes
Description: as §1, §3

RORα LBD = molecular target: T1, RORα LBD (Homo sapiens, UniProt P35398); experiment: TR-FRET NCoR1-D2 co-repressor recruitment to RORα LBD; assay type: biochemical
T1 construct: purified GST-tagged (i) RORγ LBD or (ii) RORα LBD; purchased Life Technologies
T1 sequence (P35398 272-510 limits assumed): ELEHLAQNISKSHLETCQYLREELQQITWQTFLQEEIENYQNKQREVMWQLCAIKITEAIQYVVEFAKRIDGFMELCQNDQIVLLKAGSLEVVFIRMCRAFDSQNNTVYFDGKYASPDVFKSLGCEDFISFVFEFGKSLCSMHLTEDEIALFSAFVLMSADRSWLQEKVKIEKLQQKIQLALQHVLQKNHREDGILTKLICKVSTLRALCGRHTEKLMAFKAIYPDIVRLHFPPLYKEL
Source text: The Time-Resolved Fluorescence Resonance Energy Transfer (TR-FRET) assay kit (Life Technologies) was used to measure compound efficacy to disrupt or enhance ligand-mediated interaction of the co-activator and co-repressor peptides with the purified GST-tagged (i) RORγ LBD or (ii) RORα LBD. The RORγ LBD and RORα LBD each have a basal level of interaction with the co-activator D22 or co-repressor NCoR1-D2 in the absence of ligand, thus it is possible to identify compounds that inhibit or induce RORγ and/or RORα co-activator/co-repressor interactions, thus determining RORα, RORγ, or RORα/RORγ compound selectivity. The assay was performed as per manufacturer's instructions and TR-FRET was assessed 2 and 20 hours post-assay initiation. Compounds were identified to (i) have no impact on either co-activator displacement or […] from the assessed LBD (ii) promote co-activator displacement from the assessed LBD (iii) promote co-repressor recruitment to the assessed LBD or (iv) concurrently promote co-activator displacement from the assessed LBD and co-repressor recruitment to the assessed LBD.

[4] = TR-FRET assessed 2 hr post-assay initiation, read-out: RORα EC50 NCoR1-D2 co-repressor recruitment, 2 hr
[5] = TR-FRET assessed 20 hr post-assay initiation, read-out: RORα EC50 NCoR1-D2 co-repressor recruitment, 20 hr

Row | IC50 (IL-17F) [µM] | IC50 (IL-22 [1]) [µM] | EC50 (RORα LBD; [4]) [µM] | EC50 (RORα LBD; [5]) [µM] | Compound | viability at 5 days, 1 µM [2] [%] | inhibition at 3 µM (TH17 cells) [%] | Fold change in mRNA levels of compound treated TH17 cells relative to DMSO treated cells, IL-17A (IL-17A) | Fold change in mRNA levels of compound treated TH17 cells relative to DMSO treated cells, IL-22 (IL-22 [3]) | Fold change in mRNA levels of compound treated TH17 cells relative to DMSO treated cells, IL-23R (IL-23R)
1 | < 10 | < 10 | < 30 | < 30 | OC(c1ccc(CN2CCCc3cc(-c4cn[nH]c4)ccc32)cc1)(C(F)(F)F)C(F)(F)F [Example 2, 2-(4-((6-(1H-pyrazol-4-yl)-3,4-dihydroquinolin-1(2H)-yl)methyl)phenyl)-1,1,1,3,3,3-hexafluoropropan-2-ol] | > 80 | > 50 | B | B | A
2 | < 10 | < 10 | < 30 | < 30 | Cc1cc(-c2ccc3c(c2)CCCN3Cc2ccc(C(O)(C(F)(F)F)C(F)(F)F)cc2)[nH]n1 [Example 1, 1,1,1,3,3,3-hexafluoro-2-(4-((6-(3-methyl-1H-pyrazol-5-yl)-3,4-dihydroquinolin-1(2H)-yl)methyl)phenyl)propan-2-ol] | > 80 | > 50 | A | B | A
3 | < 10 | < 10 | < 30 | > 30 | O=C1CCc2cc(-c3cn[nH]c3)ccc2N1Cc1ccc(C(O)(C(F)(F)F)C(F)(F)F)cc1 [Example 5, 1-(4-(1,1,1,3,3,3-hexafluoro-2-hydroxypropan-2-yl)benzyl)-6-(1H-pyrazol-4-yl)-3,4-dihydroquinolin-2(1H)-one] | < 80 | ≤ 50 | A | A | A
4 | > 10 | < 10 | > 30 | > 30 | Cc1n[nH]c(-c2ccc3c(c2)CCC(=O)N3Cc2ccc(C(O)(C(F)(F)F)C(F)(F)F)cc2)n1 [Example 6, 1-(4-(1,1,1,3,3,3-hexafluoro-2-hydroxypropan-2-yl)benzyl)-6-(3-methyl-1H-1,2,4-triazol-5-yl)-3,4-dihydroquinolin-2(1H)-one] | > 80 | ≤ 50 | B | B | C
5 | < 10 | < 10 | > 30 | < 30 | Cc1cc(-c2ccc3c(c2)CCC(=O)N3Cc2ccc(C(O)(C(F)(F)F)C(F)(F)F)cc2)[nH]n1 [Example 4, 1-(4-(1,1,1,3,3,3-hexafluoro-2-hydroxypropan-2-yl)benzyl)-6-(3-methyl-1H-pyrazol-5-yl)-3,4-dihydroquinolin-2(1H)-one] | > 80 | ≤ 50 | B | B | A
6 | < 10 | < 10 | > 30 | < 30 | Cc1n[nH]c(-c2ccc3c(c2)CCCN3Cc2ccc(C(O)(C(F)(F)F)C(F)(F)F)cc2)n1 [Example 3, 1,1,1,3,3,3-hexafluoro-2-(4-((6-(3-methyl-1H-1,2,4-triazol-5-yl)-3,4-dihydroquinolin-1(2H)-yl)methyl)phenyl)propan-2-ol] | > 80 | > 50 | B | B | A
